# Measured values published in patent US10004732B2 (Novartis AG, priority 2014, dated 2018).
# Legend:
# [1] = target: Vps34 (Homo sapiens, UniProt Q8NEB9); experiment: Kinase Glo Luminescent Kinase Assay (Kglo), assay C; format: biochemical; conditions: read-out: Assay C VPS34 IC50
# [2] = target: PI 4-kinase beta (Homo sapiens, UniProt Q9UBF8); experiment: Kinase Glo Luminescent Kinase Assay (Kglo), assay D; format: biochemical; conditions: read-out: Assay D PI4Kβ IC50
# [3] = target: T1, PI 3-kinase alpha (Homo sapiens, UniProt P42336); experiment: Cellular assay H1, p-Akt (S473) in Rat-1 cells, Surefire format; format: cell-based; conditions: non-asterisked data: version H1 (Surefire format), Rat-1 cells; read-out: Assay H PI3Kα IC50
# Text: Cellular Assays for PI 3-Kinase Alpha (H1), Beta (I1) and Delta (J1): Surefire Format
# AlphaScreen (Amplified Luminescent Proximity Homogeneous Assay, ALPHA, Perkin Elmer) is a non-radioactive bead-based proximity assay technology to study biomolecular interactions in a homogenous microtiter plate format. The brand name SureFire denotes AlphaScreen assays that are adapted to quantify the phosphorylation of endogenous cellular proteins in cell lysates, by using matched antibody pairs, which consist of an anti-phospho-kinase and an anti-kinase antibody. The assay allows characterization of kinase signaling in cells as well as measurement of kinase inhibitor effects.
# Using Rat-1 cells stably expressing myr-HA-tagged versions of the human PI3Kdelta, PI3Kalpha, or PI3Kbeta p110 catalytic subunit isoforms, the assay was developed as a two-plate protocol in a 384-well format.
# For compound testing, the cells were seeded at a density of 4000 (Rat-1_PI3Kdelta), 7500 (Rat-1_PI3Kalpha), or 6200 (Rat-1_PI3Kbeta) cells in 20 μl complete growth medium into cell culture treated 384-well plates and were grown at 37° C./5% CO2/90% humidity for 24 h. Shortly before compound transfer, the complete medium was removed, 30 μl assay buffer (DMEM high glucose, 1×MEM NEAA, 10 mM HEPES, 2 mM L-glutamine, 0.1% (w/v) BSA) was added and 10 μl of the compound predilutions were transferred to the cells.
# [4] = target: T2, PI 3-kinase delta (Homo sapiens, UniProt O00329); experiment: Cellular assay J1, p-Akt (S473) in Rat-1 cells, Surefire format; format: cell-based; conditions: non-asterisked data: version J1 (Surefire format), Rat-1 cells; read-out: Assay J PI3Kδ IC50
# [5] = target: T1, PI 3-kinase alpha; experiment: Kinase Glo Luminescent Kinase Assay (Kglo), assay A; format: biochemical; conditions: read-out: Assay A PI3Kα IC50
# [6] = target: PI 3-kinase gamma (Homo sapiens, UniProt P48736); experiment: TR-FRET Adapta assay, assay E; format: biochemical; conditions: for IC50: read-out: Assay E PI3Kγ IC50
# Chain of PI 3-kinase gamma (P48736 whole entry): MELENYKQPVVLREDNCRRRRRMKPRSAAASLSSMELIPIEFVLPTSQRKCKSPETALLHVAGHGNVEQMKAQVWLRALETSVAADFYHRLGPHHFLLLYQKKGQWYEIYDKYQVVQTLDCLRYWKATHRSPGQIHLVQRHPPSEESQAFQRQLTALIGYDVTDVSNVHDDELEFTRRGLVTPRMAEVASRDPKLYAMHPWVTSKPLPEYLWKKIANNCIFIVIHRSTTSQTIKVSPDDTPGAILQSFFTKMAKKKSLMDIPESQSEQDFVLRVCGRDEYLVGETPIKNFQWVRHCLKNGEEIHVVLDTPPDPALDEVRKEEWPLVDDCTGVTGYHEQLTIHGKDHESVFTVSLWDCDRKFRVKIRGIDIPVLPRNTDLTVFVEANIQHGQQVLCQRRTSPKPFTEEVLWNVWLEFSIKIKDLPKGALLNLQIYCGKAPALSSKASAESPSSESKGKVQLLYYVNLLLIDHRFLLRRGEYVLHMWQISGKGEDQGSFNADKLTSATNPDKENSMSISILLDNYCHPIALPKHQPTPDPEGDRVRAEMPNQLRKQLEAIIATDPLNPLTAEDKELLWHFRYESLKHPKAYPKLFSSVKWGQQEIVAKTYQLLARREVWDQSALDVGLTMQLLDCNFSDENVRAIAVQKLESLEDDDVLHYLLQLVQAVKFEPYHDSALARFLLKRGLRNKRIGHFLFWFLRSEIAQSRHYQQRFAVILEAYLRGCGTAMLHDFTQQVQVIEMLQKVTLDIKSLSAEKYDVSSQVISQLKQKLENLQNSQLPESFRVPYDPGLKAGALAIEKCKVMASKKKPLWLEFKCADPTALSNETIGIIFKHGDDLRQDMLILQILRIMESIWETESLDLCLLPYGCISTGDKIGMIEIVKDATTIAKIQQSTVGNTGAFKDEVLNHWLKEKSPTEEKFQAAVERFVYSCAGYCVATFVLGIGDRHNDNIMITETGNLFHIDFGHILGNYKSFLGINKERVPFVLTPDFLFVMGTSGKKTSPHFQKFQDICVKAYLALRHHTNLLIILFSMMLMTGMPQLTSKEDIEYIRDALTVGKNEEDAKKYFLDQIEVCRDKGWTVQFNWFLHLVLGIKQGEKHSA
# [7] = target: T2, PI 3-kinase delta; experiment: TR-FRET Adapta assay, assay F
# Target sequence in this assay (O00329 whole entry): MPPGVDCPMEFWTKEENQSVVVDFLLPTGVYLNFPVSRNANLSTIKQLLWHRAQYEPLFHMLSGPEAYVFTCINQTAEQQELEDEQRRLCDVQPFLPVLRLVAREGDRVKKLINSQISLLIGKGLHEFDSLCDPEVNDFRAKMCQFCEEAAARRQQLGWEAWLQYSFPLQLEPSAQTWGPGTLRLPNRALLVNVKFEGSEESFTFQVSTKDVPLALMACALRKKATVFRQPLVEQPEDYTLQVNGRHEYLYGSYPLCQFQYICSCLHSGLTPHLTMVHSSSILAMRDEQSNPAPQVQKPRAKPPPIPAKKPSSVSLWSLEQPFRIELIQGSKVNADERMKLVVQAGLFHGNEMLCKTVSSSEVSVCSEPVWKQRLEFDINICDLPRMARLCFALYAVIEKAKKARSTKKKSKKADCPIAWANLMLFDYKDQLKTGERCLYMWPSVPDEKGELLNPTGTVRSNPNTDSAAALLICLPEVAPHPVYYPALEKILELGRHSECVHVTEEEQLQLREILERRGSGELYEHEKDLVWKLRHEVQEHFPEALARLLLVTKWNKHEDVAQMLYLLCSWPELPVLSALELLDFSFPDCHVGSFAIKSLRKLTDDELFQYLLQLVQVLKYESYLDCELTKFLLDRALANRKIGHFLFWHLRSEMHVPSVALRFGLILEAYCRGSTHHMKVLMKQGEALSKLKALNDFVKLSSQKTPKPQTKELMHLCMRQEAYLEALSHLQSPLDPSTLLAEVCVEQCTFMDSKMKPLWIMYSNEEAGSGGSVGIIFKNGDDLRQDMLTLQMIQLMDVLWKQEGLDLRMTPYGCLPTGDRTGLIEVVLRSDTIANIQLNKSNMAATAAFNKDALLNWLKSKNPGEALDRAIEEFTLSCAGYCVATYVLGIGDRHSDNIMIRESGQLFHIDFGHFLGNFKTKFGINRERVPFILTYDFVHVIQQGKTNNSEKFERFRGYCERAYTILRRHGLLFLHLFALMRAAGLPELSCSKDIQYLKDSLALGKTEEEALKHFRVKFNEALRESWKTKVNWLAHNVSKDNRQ
# Target sequence in this assay (P27986 461-568 partner): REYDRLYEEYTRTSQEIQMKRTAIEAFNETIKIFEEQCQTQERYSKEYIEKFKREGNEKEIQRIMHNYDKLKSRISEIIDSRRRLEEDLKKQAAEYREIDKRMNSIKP
# [8] = target: T3, PI 3-kinase beta (Homo sapiens, UniProt P42338); experiment: Kinase Glo Luminescent Kinase Assay (Kglo), assay B; format: biochemical; conditions: read-out: Assay B PI3Kβ IC50
# Target sequence in this assay (P42338 whole entry): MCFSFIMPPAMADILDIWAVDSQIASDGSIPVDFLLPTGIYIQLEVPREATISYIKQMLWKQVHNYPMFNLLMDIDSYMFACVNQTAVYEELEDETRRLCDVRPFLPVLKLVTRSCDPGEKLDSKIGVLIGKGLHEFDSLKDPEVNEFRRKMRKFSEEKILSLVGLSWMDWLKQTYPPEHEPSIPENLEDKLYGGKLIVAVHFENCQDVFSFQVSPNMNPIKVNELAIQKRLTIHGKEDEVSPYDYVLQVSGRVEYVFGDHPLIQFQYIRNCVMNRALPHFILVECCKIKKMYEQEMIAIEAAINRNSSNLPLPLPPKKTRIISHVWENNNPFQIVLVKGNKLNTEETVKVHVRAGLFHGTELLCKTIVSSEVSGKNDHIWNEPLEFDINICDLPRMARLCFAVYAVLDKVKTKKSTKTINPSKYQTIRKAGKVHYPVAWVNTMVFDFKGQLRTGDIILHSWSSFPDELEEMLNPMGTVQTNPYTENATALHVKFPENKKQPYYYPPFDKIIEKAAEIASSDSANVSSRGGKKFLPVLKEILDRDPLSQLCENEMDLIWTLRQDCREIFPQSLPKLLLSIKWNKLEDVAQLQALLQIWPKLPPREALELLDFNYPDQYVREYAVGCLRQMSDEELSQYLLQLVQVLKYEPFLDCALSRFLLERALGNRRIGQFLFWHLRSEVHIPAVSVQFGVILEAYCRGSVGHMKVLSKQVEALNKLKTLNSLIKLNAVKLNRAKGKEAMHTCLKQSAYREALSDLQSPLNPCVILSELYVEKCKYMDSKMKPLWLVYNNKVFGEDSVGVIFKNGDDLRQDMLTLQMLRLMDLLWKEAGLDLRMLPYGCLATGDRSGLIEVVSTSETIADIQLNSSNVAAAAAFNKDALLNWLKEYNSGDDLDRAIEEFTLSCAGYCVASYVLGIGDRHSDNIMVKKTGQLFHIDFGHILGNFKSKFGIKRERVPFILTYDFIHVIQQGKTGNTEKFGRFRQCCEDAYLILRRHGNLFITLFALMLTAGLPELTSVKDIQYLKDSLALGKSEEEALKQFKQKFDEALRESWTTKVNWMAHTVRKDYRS
# Target sequence in this assay (P27986 461-568 partner): as the sequence (P27986 461-568 partner) above
# [9] = target: mTOR (Homo sapiens, UniProt P42345); experiment: Lanthascreen kinase binding assay, assay G; conditions: read-out: Assay G mTOR IC50
# Experimental: Lanthascreen™ Kinase Binding Assay for mTOR (G)
# Binding of an inhibitor to the kinase competes for binding with the tracer, resulting in a loss of FRET.
# 50 nL of compound dilutions were dispensed onto white 384-well small volume polystyrene plate.
# [10] = target: T3, PI 3-kinase beta; experiment: Cellular assay I1, p-Akt (S473) in Rat-1 cells, Surefire format; format: cell-based; conditions: non-asterisked data: version I1 (Surefire format), Rat-1 cells; read-out: Assay I PI3Kβ IC50
# Target sequence in this assay (P42338 whole entry): as the sequence (P42338 whole entry) above
# Target sequence in this assay (Q63787 whole entry partner): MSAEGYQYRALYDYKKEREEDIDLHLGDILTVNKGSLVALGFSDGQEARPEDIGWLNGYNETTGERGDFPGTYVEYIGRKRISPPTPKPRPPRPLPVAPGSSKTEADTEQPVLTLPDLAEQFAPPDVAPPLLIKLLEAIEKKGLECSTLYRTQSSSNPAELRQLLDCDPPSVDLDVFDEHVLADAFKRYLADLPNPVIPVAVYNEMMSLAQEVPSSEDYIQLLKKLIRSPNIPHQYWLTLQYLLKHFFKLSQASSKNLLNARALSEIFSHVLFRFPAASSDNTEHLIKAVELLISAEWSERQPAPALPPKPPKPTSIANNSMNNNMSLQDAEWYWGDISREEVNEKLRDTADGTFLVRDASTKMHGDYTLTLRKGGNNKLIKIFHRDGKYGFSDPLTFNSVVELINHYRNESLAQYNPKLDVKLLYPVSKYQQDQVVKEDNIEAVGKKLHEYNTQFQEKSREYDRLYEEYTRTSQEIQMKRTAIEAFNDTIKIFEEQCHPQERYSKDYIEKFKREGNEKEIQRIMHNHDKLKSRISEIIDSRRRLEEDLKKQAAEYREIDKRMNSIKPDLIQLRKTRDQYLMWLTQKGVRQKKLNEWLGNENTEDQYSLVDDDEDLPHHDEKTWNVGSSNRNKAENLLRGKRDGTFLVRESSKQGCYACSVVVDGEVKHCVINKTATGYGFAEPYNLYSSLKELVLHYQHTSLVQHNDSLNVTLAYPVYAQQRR
# [11] = Microsomal clearance assay (M); conditions: intrinsic clearance in rat liver microsomes
# Experimental: The experiments were performed in 96-well glass plates at 37° C. on an automated Tecan EVO platform. Test compounds at a concentration of 10 mM in pure DMSO were diluted 1:1000 in water to 10 μM. […] Reactions were initiated by the addition of 150 μL of a cofactor solution containing 2 mM NADPH.
# Chain of Vps34 (Q8NEB9 whole entry, species assumed): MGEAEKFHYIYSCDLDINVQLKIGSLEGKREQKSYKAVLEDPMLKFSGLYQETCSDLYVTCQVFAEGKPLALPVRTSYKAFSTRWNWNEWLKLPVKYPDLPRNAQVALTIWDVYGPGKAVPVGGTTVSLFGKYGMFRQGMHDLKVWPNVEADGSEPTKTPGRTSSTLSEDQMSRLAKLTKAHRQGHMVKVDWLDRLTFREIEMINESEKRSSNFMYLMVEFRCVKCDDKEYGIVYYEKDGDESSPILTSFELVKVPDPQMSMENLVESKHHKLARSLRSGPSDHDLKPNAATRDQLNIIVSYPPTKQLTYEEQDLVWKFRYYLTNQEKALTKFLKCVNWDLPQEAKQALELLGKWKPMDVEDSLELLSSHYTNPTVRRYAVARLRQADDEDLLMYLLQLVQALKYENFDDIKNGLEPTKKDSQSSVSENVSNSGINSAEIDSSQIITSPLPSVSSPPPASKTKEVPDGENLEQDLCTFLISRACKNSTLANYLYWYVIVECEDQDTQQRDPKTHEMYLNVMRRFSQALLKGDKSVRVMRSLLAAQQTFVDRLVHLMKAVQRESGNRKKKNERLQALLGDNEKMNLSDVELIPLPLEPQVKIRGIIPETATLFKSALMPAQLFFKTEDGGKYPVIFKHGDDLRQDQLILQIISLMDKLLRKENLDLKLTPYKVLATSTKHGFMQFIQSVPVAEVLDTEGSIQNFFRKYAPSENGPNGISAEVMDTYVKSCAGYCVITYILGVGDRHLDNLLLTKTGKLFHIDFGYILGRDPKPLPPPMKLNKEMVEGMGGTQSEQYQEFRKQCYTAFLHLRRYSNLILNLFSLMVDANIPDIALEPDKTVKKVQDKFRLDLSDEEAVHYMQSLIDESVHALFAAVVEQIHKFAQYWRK
SMILES,IC50 [1],IC50 [2],IC50 [3],IC50 [4],IC50 [5],IC50 [6],IC50 [7],IC50 [8],IC50 [9],IC50 [10],IC50 ([7]; read-out: Assay F PI3Kδ IC50),Assay M RLM CI(int) [11],"activity in assay E ([6]; TR-FRET Adapta, PI 3-kinase gamma)"
"Cc1ccc(S(=O)(=O)NC[C@@H]2COCCN2C)cc1-c1cnc(N)c(-c2cn(C)nc2C)n1 (single isomer, unassigned) [Example 128.3a, (R)-3-(5-Amino-6-(1,3-dimethyl-1H-pyrazol-4-yl)pyrazin-2-yl)-4-methyl-N-((4-methylmorpholin-3-yl)methyl)benzenesulfonamide or (S)-3-(5-Amino-6-(1,3-dimethyl-1H-pyrazol-4-yl)pyrazin-2-yl)-4-methyl-N-((4-methylmorpholin-3-yl)methyl)benzenesulfonamide]",> 10000 nM,> 10 µM,5.15 µM,2100 nM,–,–,–,–,–,–,–,–,–
"Cc1ccc(S(=O)(=O)NCC2COCCN2C)cc1-c1cnc(N)c(-c2cn(C)nc2C)n1 (single isomer, unassigned) [Example 128.3b, (R)-3-(5-Amino-6-(1,3-dimethyl-1H-pyrazol-4-yl)pyrazin-2-yl)-4-methyl-N-((4-methylmorpholin-3-yl)methyl)benzenesulfonamide or (S)-3-(5-Amino-6-(1,3-dimethyl-1H-pyrazol-4-yl)pyrazin-2-yl)-4-methyl-N-((4-methylmorpholin-3-yl)methyl)benzenesulfonamide]",> 10000 nM,4.6 µM,4.97 µM,3820 nM,370 nM,55 nM,540 nM,–,–,–,–,–,–
"Cc1ccc(S(=O)(=O)NCC(C)(C)O)cc1-c1cnc(N)c(-n2cncn2)n1 [Example 6, 3-(5-Amino-6-(1H-1,2,4-triazol-1-yl)pyrazin-2-yl)-N-(2-hydroxy-2-methylpropyl)-4-methylbenzenesulfonamide]",> 9400 nM,7.12 µM,–,–,–,–,–,2310 nM,9010 nM,7.28 µM,–,–,–
"Cc1ncc(-c2nc(-c3cc(S(=O)(=O)NCC(C)(C)O)ccc3C)cnc2N)s1 [Example 7, 3-(5-Amino-6-(2-methylthiazol-5-yl)pyrazin-2-yl)-N-(2-hydroxy-2-methylpropyl)-4-methylbenzenesulfonamide]",390 nM,1.95 µM,–,–,–,–,–,990 nM,920 nM,3.46 µM,–,–,–
"Cc1ncc(-c2nc(-c3cc(S(=O)(=O)NCCCO)ccc3C)cnc2N)s1 [Example 10, 3-(5-Amino-6-(2-methylthiazol-5-yl)pyrazin-2-yl)-N-(3-hydroxypropyl)-4-methylbenzenesulfonamide]",210 nM,1.89 µM,–,600 nM,–,–,–,890 nM,1880 nM,6.31 µM,60 nM,–,–
"Cc1ncc(-c2nc(-c3cc(S(=O)(=O)N[C@H]4CC[C@H](O)CC4)ccc3C)cnc2N)s1 [Example 14, Trans-3-(5-Amino-6-(2-methylthiazol-5-yl)pyrazin-2-yl)-N-(4-hydroxycyclohexyl)-4-methylbenzenesulfonamide]",420 nM,1.57 µM,–,310 nM,–,–,–,620 nM,880 nM,1.79 µM,40 nM,–,–
"Cc1ccc(S(=O)(=O)NCC(C)(C)O)cc1-c1cnc(N)c(-c2cnn(C)n2)n1 [Example 18, 3-[5-Amino-6-(2-methyl-2H-[1,2,3]triazol-4-yl)-pyrazin-2-yl]-N-(2-hydroxy-2-methyl-propyl)-4-methyl-benzenesulfonamide]",> 10000 nM,8.6 µM,–,–,–,–,–,2800 nM,5550 nM,2.6 µM,–,–,–
"Cc1ccc(S(=O)(=O)NCC(C)(C)O)cc1-c1cnc(N)c(-c2nn(C)nc2C)n1 [Example 19, 3-[5-Amino-6-(2,5-dimethyl-2H-[1,2,3]triazol-4-yl)-pyrazin-2-yl]-N-(2-hydroxy-2-methyl-propyl)-4-methyl-benzenesulfonamide]",–,3.85 µM,–,70 nM,–,–,–,140 nM,420 nM,0.28 µM,20 nM,–,–
"Cc1ncc(-c2nc(-c3cc(S(=O)(=O)NC4CCC(F)(F)CC4)ccc3C)cnc2N)s1 [Example 55, 3-(5-Amino-6-(2-methylthiazol-5-yl)pyrazin-2-yl)-N-(4,4-difluorocyclohexyl)-4-methylbenzenesulfonamide]",640 nM,3.74 µM,–,1240 nM,–,–,–,120 nM,620 nM,2.67 µM,30 nM,–,–
"Cc1ccc(S(=O)(=O)NC2CC3(CC(O)C3)C2)cc1-c1cnc(N)c(-c2cn(C)nc2C)n1 (stereo not shown) [Example 74, 3-(5-Amino-6-(1,3-dimethyl-1H-pyrazol-4-yl)pyrazin-2-yl)-N-(6-hydroxyspiro[3.3]heptan-2-yl)-4-methylbenzenesulfonamide]",> 10000 nM,–,–,6860 nM,–,41 nM,–,830 nM,3500 nM,> 10 µM,380 nM,30 µL/min/mg,–
"Cc1ncc(-c2nc(-c3cc(S(=O)(=O)N[C@H]4CC[C@@H](O)CC4)ccc3C)cnc2N)s1 [Example 87, 3-(5-Amino-6-(2-methylthiazol-5-yl)pyrazin-2-yl)-N-((1s,4s)-4-hydroxycyclohexyl)-4-methylbenzenesulfonamide]",320 nM,1.57 µM,–,1220 nM,–,–,–,270 nM,1840 nM,3.4 µM,30 nM,–,–
"Cc1ccc(S(=O)(=O)NOCC(C)C)cc1-c1cnc(N)c(-n2cncn2)n1 [Example 112.4, 3-(5-Amino-6-(1H-1,2,4-triazol-1-yl)pyrazin-2-yl)-N-isobutoxy-4-methylbenzenesulfonamide]",> 10000 nM,1.1 µM,0.07 µM,400 nM,80 nM,93 nM,–,560 nM,> 10000 nM,> 3 µM,190 nM,–,–
"Cc1ccc(S(=O)(=O)NCCC(C)(C)O)cc1-c1cnc(N)c(-c2cc(C(F)(F)F)nn2C)n1 [Example 119, 3-(5-Amino-6-(1-methyl-3-(trifluoromethyl)-1H-pyrazol-5-yl)pyrazin-2-yl)-N-(3-hydroxy-3-methylbutyl)-4-methylbenzenesulfonamide]",> 9100 nM,> 9.1 µM,1.64 µM,1760 nM,600 nM,118 nM,–,> 9100 nM,4310 nM,3.06 µM,710 nM,–,–
Cc1ccc(S(=O)(=O)NCCC(C)(C)O)cc1-c1cnc(N)c(-c2cccnc2F)n1 [Example 119.1],> 9100 nM,6.2 µM,2.69 µM,2820 nM,610 nM,1000 nM,–,> 9100 nM,4910 nM,3.81 µM,2300 nM,–,–
COc1ncccc1-c1nc(-c2cc(S(=O)(=O)NCCC(C)(C)O)ccc2C)cnc1N [Example 119.4],> 9100 nM,> 9.1 µM,> 10 µM,> 10000 nM,2830 nM,3120 nM,–,> 9100 nM,> 9100 nM,> 10 µM,5700 nM,–,–
Cc1ncc(-c2nc(-c3cc(S(=O)(=O)NCCC(C)(C)O)ccc3C)cnc2N)s1 [Example 119.29],570 nM,2.64 µM,–,470 nM,–,–,–,920 nM,590 nM,9.08 µM,70 nM,–,–
"Cc1ccc(S(=O)(=O)NCC2CN(C)CCO2)cc1-c1cnc(N)c(-c2cn(C)nc2C)n1 (stereo not shown) [Example 128.5, 3-(5-Amino-6-(1,3-dimethyl-1H-pyrazol-4-yl)pyrazin-2-yl)-4-methyl-N-((4-methylmorpholin-2-yl)methyl)benzenesulfonamide]",> 10000 nM,> 10 µM,> 10 µM,> 10000 nM,2300 nM,370 nM,–,9600 nM,–,> 10 µM,2200 nM,–,–
"Cc1ccc(S(=O)(=O)NCC(N)=O)cc1-c1cnc(N)c(-n2cncn2)n1 [Example 133, 2-(3-(5-Amino-6-(1H-1,2,4-triazol-1-yl)pyrazin-2-yl)-4-methylphenylsulfonamido)acetamide]",> 9550 nM,8.9 µM,–,–,1020 nM,110 nM,–,7800 nM,> 9550 nM,–,1140 nM,19 µL/min/mg,–
"Cc1ccc(S(=O)(=O)NCCC(C)(C)O)cc1-c1cnc(N)c(-c2cccnc2OC(C)C)n1 [Reference example 119.12, 3-(5-amino-6-(2-isopropoxypyridin-3-yl)pyrazin-2-yl)-N-(3-hydroxy-3-methylbutyl)-4-methylbenzenesulfonamide]",–,–,> 10 µM,> 10000 nM,–,–,–,–,–,> 10 µM,–,–,not shown any activity
